Results published in patent US20180133223A1, “COMBINATION THERAPY WITH A PHOSPHOINOSITIDE 3-KINASE INHIBITOR WITH A ZINC BINDING MOIETY” (Curis, Inc., priority 2016, published 2018).
Marks after values point to notes of the source that are not given here.

Legend:
[1] = Oral bioavailability in animal models; format: in vivo
SUDHL4 = assay: SU-DHL-4 diffuse large B cell lymphoma xenograft model; format: in vivo, mice; details: SUDHL4, 100 mg/kg
Procedure: 7- to 9-week-old female immunodeficient Fox Chase SCID Beige mice (15-24 g) obtained from Charles River Laboratories (Wilmington, Mass.) were subcutaneously injected with 5×10^6 SU-DHL-4 cells in a medium suspension of 100 μL cold PBS into the right hind flank region. The treatment was started 29 days following implantation; the average tumor size reached was 126 mm^3. […] Venetoclax (ABT-199) was dissolved in Vehicle 2 (60% phosal 50 PG, 30% PEG 400 and 10% ethanol) to a concentration of 20 mg/mL.
In Groups H to K, Compound 1 and venetoclax were dosed within one minute of each other.
Tumor size was measured twice weekly and the volume was expressed in mm^3 using the formula, V=0.5a×b^2, where a and b were the long and short diameters of the tumor, respectively. The tumor size was then used for the calculation of tumor growth inhibition (TGI)=(1−(T1−T0)/(C1−C0))×100, where C1=mean tumor volume of control mice at time t; T1=mean tumor volume of treated mice at time t; C0=mean tumor volume of control mice at time 0; and T0=mean tumor volume of treated mice at time 0.
(§1) Differences between values obtained in tumors treated with different experimental conditions were determined using the Student's t-test on GraphPad Prism 5.0 (Graphpad Software). p<0.05 was considered as statistically significant.

U2932 = assay: Tumor growth inhibition, U2932; format: in vivo; details: U2932, 100 mg/kg
[2] = Genotoxicity testing, Ames test
xenograft tumor = assay: Mouse xenograft tumor models; format: in vivo; details: oral or intravenous administration
WSUDLCL2 = assay: Tumor growth inhibition, WSUDLCL2; format: in vivo; details: WSUDLCL2, 100 mg/kg
OCILY3 = assay: Tumor growth inhibition, OCILY3; format: in vivo; details: OCILY3, 100 mg/kg
KARPAS422 = assay: Tumor growth inhibition, KARPAS422; format: in vivo; details: KARPAS422, 100 mg/kg
DOHH2 = DOHH2 diffuse large B cell lymphoma xenograft model; format: in vivo, mice; details: DOHH2, 100 mg/kg
Procedure: Six- to 9-week-old female immunodeficient Fox Chase SCID Beige mice obtained from Charles River Laboratories (Wilmington, Mass.) were subcutaneously injected with 5×10^6 cells in a medium suspension of 100 to 200 μL into the right hind flank region. The treatment was started when the average tumor size reached approximately 100 to 200 mm^3. […] Venetoclax was formulated in 60% phosal 50PG, 30% PEG 400, 10% ethanol (Vehicle 2; Sigma Aldrich, St. Louis, Mo.).
Varying doses of Compound 1 alone, venetoclax alone, the two agents in combination or vehicle were administered orally as per Institutional Animal Care and Use Committee guidelines. […] Venetoclax and Vehicle 2 were dosed daily for 21 days.
Tumor size was measured twice weekly and the volume was expressed in mm^3 using the formula, V=0.5a×b^2, where a and b were the long and short diameters of the tumor, respectively. […]
as §1

[3] = test system: HDACs (HeLa cell nuclear extracts); assay: HDAC activity assay (Biomol Color de Lys), HeLa cell nuclear extracts; format: biochemical; details: HeLa cell nuclear extracts as source of HDACs
Procedure: HDAC inhibitory activity was assessed using the Biomol Color de Lys system (AK-500, Biomol, Plymouth Meeting, Pa.). Briefly, HeLa cell nuclear extracts were used as a source of HDACs. Different concentrations of test compounds were serially diluted in dimethylsulfoxide (DMSO) and added to HeLa cell nuclear extracts in the presence of a colorimetric artificial substrate. Final assay condition contained 50 mM Tris/Cl, pH 8.0, 137 mM NaCl, 2.7 mM KCl and 1 mM MgCl2. Reactions were carried in room temperature (25° C.) for 1 hour before addition of developer for termination. Relative enzyme activity was measured in the WALLAC Victor II 1420 microplate reader as fluorescence intensity (excitation: 350-380 nm; emission: 440-460 nm). Data were analyzed using GraphPad Prism (v4.0a) with a sigmoidal dose response curve fitting for IC50 calculation.

[4] = Tumor tissue uptake in xenograft tumor bearing mice; format: in vivo; details: oral or intravenous dosing
OCILY3 cells = assay: Cancer cell proliferation / drug combination (CellTiter-Glo); format: cell-based
Procedure: (§2) DLBCL cancer cell lines were purchased from the American Type Culture Collection (Manassas, Va.) and German Collection of Microorganisms and Cell Cultures (Braunschweig, Germany). Cells were maintained according to manufacturing recommendation and incubated at 37° C. in a humidified atmosphere of 5% CO2. Growth media was changed every 2 to 3 days and cells were maintained at a density of 2×10^6 to 4×10^6 cells/mL. Exponentially growing cell cultures were used for all experiments described below.
(§3) Cells were plated at densities of 2×10^4 in 96-well flat-bottomed plates with the recommended culture medium for proliferation assays. Cells were then incubated with indicated compounds at various concentrations for indicated amount of time in culture medium supplemented with 10% (v/v) FBS. Cell viability was assessed using the […]-GLO® Luminescent Cell Viability Assay (Promega, Madison, Wis.). GraphPad Prism 5.0 (Graphpad Software, La Jolla, Calif.) was used for curve fitting and IC50 calculation. Two independent experiments with duplicates were performed for each experiment.
(§4) Drug combination synergy was determined based on dose-effect curves generated as cell proliferation after 24 hours of treatment.

DOHH2 cells = assay: as above; format: cell-based; details: DOHH2, Follicular Lymphoma, single agent; read-out: ABT-199 EC50
Procedure: as §2, §3, §4

WSUDLCL2 cells = assay: as above; format: cell-based
Procedure: as §2, §3, §4

KARPAS422 cells = assay: as above; format: cell-based
Procedure: as §2, §3, §4

SUDHL4 cells = assay: as above; format: cell-based
Procedure: as §2, §3, §4

U2932 cells = assay: as above; format: cell-based; details: U2932, ABC DLBCL, single agent; read-out: ABT-199 EC50
Procedure: as §2, §3, §4

COc1ccc(-c2nc(N3CCOCC3)c3sc(CN(C)c4ncc(C(=O)NO)cn4)cc3n2)cn1 [Compound 1, N-hydroxy-2-(((2-(6-methoxypyridin-3-yl)-4-morpholinothieno[3,2-d]pyrimidin-6-yl)methyl)(methyl)amino)pyrimidine-5-carboxamide]
oral bioavailability [1]: significant oral bioavailability
Compound 1 %TGI (100 mg/kg) (SUDHL4): 47%*
Compound 1 %TGI (100 mg/kg) (U2932): 97%
safety profile, genotoxicity (Ames test) [2]: favorable safety profile
antitumor activity (xenograft tumor): substantial antitumor activity
Compound 1 %TGI (100 mg/kg) (WSUDLCL2): 69%
Compound 1 %TGI (100 mg/kg) (OCILY3): 23%
Compound 1 %TGI (100 mg/kg) (KARPAS422): 33%
Compound 1 %TGI (100 mg/kg) (DOHH2): 56%
IC50 [3]: < 100 nM
uptake by the tumor tissue [4]: significant uptake by the tumor tissue

venetoclax [ABT-199]
sensitivity of cell line to single agent (OCILY3 cells; OCILY3): refractory
EC50 (OCILY3 cells; OCILY3, ABC DLBCL, single agent, read-out: ABT-199 EC50): 20000 nM
EC50 (DOHH2 cells): 133 nM
sensitivity of cell line to single agent (WSUDLCL2 cells; WSUDLCL2): refractory
EC50 (WSUDLCL2 cells; WSUDLCL2, GCB DLBCL, single agent, read-out: ABT-199 EC50): 3660 nM
sensitivity of cell line to single agent (KARPAS422 cells; KARPAS422): refractory
EC50 (KARPAS422 cells; KARPAS422, Follicular Lymphoma, single agent, read-out: ABT-199 EC50): 15600 nM
sensitivity of cell line to single agent (SUDHL4 cells; SUDHL4): refractory
EC50 (SUDHL4 cells; SUDHL4, GBC DLBCL, single agent, read-out: ABT-199 EC50): 2130 nM
EC50 (U2932 cells): 476 nM
